Laboratory results: US11084826B2, “RSV antiviral pyrazolo- and triazolo-pyrimidine compounds” (Janssen Sciences Ireland Unlimited Company, priority 2015, dated 2021)

System: rgRSV224 virus
Assay: Antiviral activity: inhibition of rgRSV224 (GFP-expressing RSV) replication in HeLa cells, GFP expression read-out
Type: cell-based, respiratory syncytial virus (RSV)
Conditions: rgRSV224 virus (MOI=1) in HeLa cells, GFP read-out
Outline: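 HeLa cells (3,000/well) were infected with GFP-expressing rgRSV224 (MOI=1) in the presence of 9 serial 4-fold compound dilutions (0.05% DMSO) and incubated at 37° C, 5% CO2. After three days, GFP expression was measured by laser microscopy. EC50 is the concentration giving 50% inhibition of GFP expression.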

Row | SMILES | RSV HELA pEC50
1 | CCc1cc(C(=O)N2CCCCC[C@H]2C)nc2cc(-c3ccc4c(c3F)C=C(C(=O)O)CO4)nn12 [Compound F46] | 7.31
2 | CCc1cc(C(=O)N2CCCCC[C@H]2C)nc2cc(-c3ccc(C4=CCCC(C(=O)O)C4)cc3F)nn12 (some centres unmarked) [Compound F52] | 6.81
3 | CCc1cc(C(=O)N2CCc3ccccc3[C@H]2C)nc2cc(-c3ccc4c(c3F)OCC(C(=O)O)=C4)nn12 [Compound F54] | 8.59
4 | CCc1cc(C(=O)N2CCc3sccc3[C@H]2C)nc2cc(-c3ccc(-c4ccc(C(=O)O)cn4)cc3F)nn12 [Compound F63] | 7.34
5 | CCc1cc(C(=O)N2CCCCC[C@H]2C)nc2cc(-c3ccc4c(c3F)OC[C@H](C(=O)O)C4)nn12 [Compound F64] | 7.12
6 | CCc1cc(C(=O)N2CCn3c(C)ccc3C2C)nc2cc(-c3ccc(C(N)=O)cc3F)nn12 (centres unmarked) [Compound I36] | 6.58
7 | CCc1cc(C(=O)N2CCn3nccc3C2C)nc2cc(-c3ccc(C(N)=O)cc3F)nn12 (centres unmarked) [Compound I37] | 6.24
8 | C[C@@H]1CCCCCN1C(=O)c1cc(N(C)C)n2nc(-c3ccc(/C=C/C(=O)O)cc3F)cc2n1 [Compound M4] | 6.80
9 | CCc1cc(C(=O)N2CCc3ccccc3C2C)nc2cc(-c3ccc(/C=C/C(=O)O)cc3Cl)nn12 (centres unmarked) [Compound M6] | 6.84
10 | CCc1cc(C(=O)N2CCCCC[C@H]2C)nc2cc(-c3ccc(/C=C/C(=O)O)cc3F)nn12 [Compound M7] | 7.00
11 | CNc1cc(C(=O)N2CCc3ccccc3C2C)nc2cc(-c3ccc(/C=C/C(=O)O)cc3F)nn12 (centres unmarked) [Compound M8] | 7.31
12 | C[C@@H]1CCCCCN1C(=O)c1cc(C2CC2)n2nc(-c3ccc(/C=C/C(=O)O)cc3F)cc2n1 [Compound M21] | 7.16
13 | C[C@@H]1CCCCCN1C(=O)c1cc(C2(C)CC2)n2nc(-c3cccc(/C=C/C(=O)O)c3F)cc2n1 [Compound M22] | 7.34
14 | CCc1cc(C(=O)N2CCCCC[C@H]2C)nc2cc(-c3cccc(/C=C\C(=O)O)c3F)nn12 [Compound M31] | 6.13
15 | CCc1cc(C(=O)N2CCCCC[C@H]2C)nc2cc(-c3ccc(OC)c(/C=C/C(=O)O)c3F)nn12 [Compound M34] | 7.04
16 | C[C@@H]1c2ccccc2CCN1C(=O)c1cc(C2(C)CC2)n2nc(-c3cccc(/C=C/C(=O)O)c3F)cc2n1 [Compound M36] | 7.99
17 | CN1CCCCCN1C(=O)c1cc(C2(C)CC2)n2nc(-c3cccc(/C=C/C(=O)O)c3F)cc2n1 [Compound M37] | 7.10
18 | CCCC(C)N(C)C(=O)c1cc(CC)n2nc(-c3cccc(/C=C/C(=O)O)c3F)cc2n1 (centres unmarked) [Compound M38] | 6.65
19 | CCc1cc(C(=O)N2CCCC3(CC=CC3)C2C)nc2cc(-c3cccc(/C=C/C(=O)O)c3F)nn12 (centres unmarked) [Compound M39] | 6.19
20 | CCc1cc(C(=O)N2CCCCCN2C)nc2cc(-c3cccc(/C=C/C(=O)O)c3F)nn12 [Compound M40] | 6.37
21 | CCc1cc(C(=O)N2CCn3cccc3C2C)nc2cc(-c3cccc(/C=C/C(=O)O)c3F)nn12 (centres unmarked) [Compound M45] | 7.54
22 | CC1c2ccsc2CCN1C(=O)c1cc(C2(C)CC2)n2nc(-c3cccc(/C=C/C(=O)O)c3F)cc2n1 (centres unmarked) [Compound M47] | 7.87
23 | CCc1cc(C(=O)N2CCc3ccccc3[C@H]2C)nc2cc(-c3ccc(C4C[C@H]4C(=O)O)cc3F)nn12 (some centres unmarked) [Compound O15] | 7.91
24 | C[C@@H]1CCCCCN1C(=O)c1cc(C2(C)COC2)n2nc(-c3ccc(C4C[C@H]4C(=O)O)cc3F)cc2n1 (some centres unmarked) [Compound O17] | 7.29
25 | CC(C)Cc1cc(C(=O)N2CCCCC[C@H]2C)nc2cc(-c3ccc(-n4cc(C(=O)O)cn4)cc3F)nn12 [Compound W13] | 7.45

System: HeLa cells
Assay: Cytotoxicity in HeLa cells, ATP content measured with the ATPlite kit
Type: cell-based
Conditions: not given

Row | SMILES | TOX HELA pCC50
26 | CCc1cc(C(=O)N2CCCCC[C@H]2C)nc2cc(-c3ccc4c(c3F)C=C(C(=O)O)CO4)nn12 [Compound F46] | <4
27 | CCc1cc(C(=O)N2CCCCC[C@H]2C)nc2cc(-c3ccc(C4=CCCC(C(=O)O)C4)cc3F)nn12 (some centres unmarked) [Compound F52] | 4.22
28 | CCc1cc(C(=O)N2CCc3ccccc3[C@H]2C)nc2cc(-c3ccc4c(c3F)OCC(C(=O)O)=C4)nn12 [Compound F54] | 4.75
29 | CCc1cc(C(=O)N2CCc3sccc3[C@H]2C)nc2cc(-c3ccc(-c4ccc(C(=O)O)cn4)cc3F)nn12 [Compound F63] | 4.35
30 | CCc1cc(C(=O)N2CCCCC[C@H]2C)nc2cc(-c3ccc4c(c3F)OC[C@H](C(=O)O)C4)nn12 [Compound F64] | <4
31 | CCc1cc(C(=O)N2CCn3c(C)ccc3C2C)nc2cc(-c3ccc(C(N)=O)cc3F)nn12 (centres unmarked) [Compound I36] | <4.60
32 | CCc1cc(C(=O)N2CCn3nccc3C2C)nc2cc(-c3ccc(C(N)=O)cc3F)nn12 (centres unmarked) [Compound I37] | <4.60
33 | C[C@@H]1CCCCCN1C(=O)c1cc(N(C)C)n2nc(-c3ccc(/C=C/C(=O)O)cc3F)cc2n1 [Compound M4] | <4.60
34 | CCc1cc(C(=O)N2CCc3ccccc3C2C)nc2cc(-c3ccc(/C=C/C(=O)O)cc3Cl)nn12 (centres unmarked) [Compound M6] | <4.60
35 | CCc1cc(C(=O)N2CCCCC[C@H]2C)nc2cc(-c3ccc(/C=C/C(=O)O)cc3F)nn12 [Compound M7] | <4.60
36 | CNc1cc(C(=O)N2CCc3ccccc3C2C)nc2cc(-c3ccc(/C=C/C(=O)O)cc3F)nn12 (centres unmarked) [Compound M8] | <4.60
37 | C[C@@H]1CCCCCN1C(=O)c1cc(C2CC2)n2nc(-c3ccc(/C=C/C(=O)O)cc3F)cc2n1 [Compound M21] | 4.34
38 | C[C@@H]1CCCCCN1C(=O)c1cc(C2(C)CC2)n2nc(-c3cccc(/C=C/C(=O)O)c3F)cc2n1 [Compound M22] | 4.05
39 | CCc1cc(C(=O)N2CCCCC[C@H]2C)nc2cc(-c3cccc(/C=C\C(=O)O)c3F)nn12 [Compound M31] | <4
40 | CCc1cc(C(=O)N2CCCCC[C@H]2C)nc2cc(-c3ccc(OC)c(/C=C/C(=O)O)c3F)nn12 [Compound M34] | <4
41 | C[C@@H]1c2ccccc2CCN1C(=O)c1cc(C2(C)CC2)n2nc(-c3cccc(/C=C/C(=O)O)c3F)cc2n1 [Compound M36] | 4.26
42 | CN1CCCCCN1C(=O)c1cc(C2(C)CC2)n2nc(-c3cccc(/C=C/C(=O)O)c3F)cc2n1 [Compound M37] | <4
43 | CCCC(C)N(C)C(=O)c1cc(CC)n2nc(-c3cccc(/C=C/C(=O)O)c3F)cc2n1 (centres unmarked) [Compound M38] | <4
44 | CCc1cc(C(=O)N2CCCC3(CC=CC3)C2C)nc2cc(-c3cccc(/C=C/C(=O)O)c3F)nn12 (centres unmarked) [Compound M39] | <4
45 | CCc1cc(C(=O)N2CCCCCN2C)nc2cc(-c3cccc(/C=C/C(=O)O)c3F)nn12 [Compound M40] | <4
46 | CCc1cc(C(=O)N2CCn3cccc3C2C)nc2cc(-c3cccc(/C=C/C(=O)O)c3F)nn12 (centres unmarked) [Compound M45] | <4
47 | CC1c2ccsc2CCN1C(=O)c1cc(C2(C)CC2)n2nc(-c3cccc(/C=C/C(=O)O)c3F)cc2n1 (centres unmarked) [Compound M47] | 4.07
48 | CCc1cc(C(=O)N2CCc3ccccc3[C@H]2C)nc2cc(-c3ccc(C4C[C@H]4C(=O)O)cc3F)nn12 (some centres unmarked) [Compound O15] | 4.32
49 | C[C@@H]1CCCCCN1C(=O)c1cc(C2(C)COC2)n2nc(-c3ccc(C4C[C@H]4C(=O)O)cc3F)cc2n1 (some centres unmarked) [Compound O17] | 4.11
50 | CC(C)Cc1cc(C(=O)N2CCCCC[C@H]2C)nc2cc(-c3ccc(-n4cc(C(=O)O)cn4)cc3F)nn12 [Compound W13] | 4.38
